Laboratory results reported in patent publication US5318972A, “Pyrimidine nucleoside derivative and antiviral agent containing the derivative as active ingredient” (priority 1990, dated 1994).

What was measured:
HIV = assay: Inhibitory activity for HIV infection (prevention of death of HIV-infected MT-4 cells); assay type: cell-based; conditions: Human immunodeficiency virus 1, MT4, 120 h, 5 days incubation at 37° C., concentration preventing death of 50% of HIV-infected MT-4 cells
Experimental: (§1) In RPMI 1640 DM culture medium containing 20 mM of Hepes buffer solution, 10% fetal bovine serum and 20 µg/ml of gentamycin, 3×10^4 MT-4 cells (human T cell clone which is destroyed by the infection of HIV) were infected with HIV in an amount of 100 times as large as expected to cause 50% infection of the cells. Immediately thereafter, a predetermined amount of sample was added to the culture medium using 50 mg/ml sample solutions in dimethyl sulfoxide and the cells were cultured at 37° C.
(§2) After 5 days of incubation, the number of existing cells was counted to determine the concentration of the compound required for preventing the death of 50% of the MT-4 cells. Separately, MT-4 cells were cultured in the same way as above except that they were not infected with HIV to determine the concentration of the compound at which 50% of the MT-4 cells were destroyed.

[1] = Cytotoxicity to uninfected MT-4 cells; assay type: cell-based; conditions: human, 5 days incubation at 37° C., concentration at which 50% of cells were destroyed, read-out: 50% cytotoxic concentration to MT-4 cells
Experimental: as §1, §2

host cells = conditions: background, clinical treatment of HIV-infection; cited from earlier work

Compound | IC50 (HIV) [µM] | CC50 at 120 h [1] [µM] | toxicity in the host cells (host cells)
CCc1c(Cc2ccccc2)n(COCCO)c(=O)[nH]c1=O [Compound 10, 6-benzyl-5-ethyl-1-[(2-hydroxyethoxy)methyl]uracil] | 0.35 | 391 | –
CCc1c(Sc2cc(Cl)cc(Cl)c2)n(COCCO)c(=O)[nH]c1=O [Compound 6, 6-(3,5-dichlorophenylthio)-5-ethyl-1-[(2-hydroxyethoxy)methyl]uracil] | 0.014 | 51 | –
CCc1c(Sc2ccccc2)n(COCCO)c(=S)[nH]c1=O [Compound 1, 5-ethyl-1-[(2-hydroxyethoxy)methyl]-6-phenylthio-2-thiouracil] | 0.11 | 148 | –
Cc1cc(C)cc(Cc2c(C(C)C)c(=O)[nH]c(=O)n2COCCO)c1 [Compound 31, 6-(3,5-dimethylbenzyl)-1-[(2-hydroxyethoxy)methyl]-5-isopropyluracil] | 0.0066 | 318 | –
CC(C)c1c(Sc2ccccc2)n(COCCO)c(=S)[nH]c1=O [Compound 20, 1-[(2-hydroxyethoxy)methyl]-6-phenylthio-5-isopropyl-2-thiouracil] | 0.059 | 400 | –
Cc1cc(C)cc(Sc2c(C(C)C)c(=O)[nH]c(=S)n2COCCO)c1 [Compound 22, 6-(3,5-dimethylphenylthio)-1-[(2-hydroxyethoxy)methyl]-5-isopropyl-2-thiouracil] | 0.0045 | 48 | –
CCc1c(Sc2cc(C)cc(C)c2)n(COCCO)c(=S)[nH]c1=O [Compound 3, 6-(3,5-dimethylphenylthio)-5-ethyl-1-[(2-hydroxyethoxy)methyl]-2-thiouracil] | 0.0078 | 227 | –
CCCc1c(Sc2ccccc2)n(COCCO)c(=S)[nH]c1=O [compound 3, reference compound] | 3.4 | 224 | –
CCc1c(Sc2ccccc2)n(COCCO)c(=O)[nH]c1=O [Compound 39, 5-ethyl-1-[(2-hydroxyethoxy)methyl]-6-(phenylthio)uracil] | 0.077 | 221 | –
CCc1c(Sc2cc(Cl)cc(Cl)c2)n(COCCO)c(=S)[nH]c1=O [Compound 7, 6-(3,5-dichlorophenylthio)-5-ethyl-1-[(2-hydroxyethoxy)methyl]-2-thiouracil] | 0.043 | 64 | –
CCc1c(Cc2cc(C)cc(C)c2)n(COCCO)c(=O)[nH]c1=O [Compound 12, 6-(3,5-dimethylbenzyl)-5-ethyl-1-[(2-hydroxyethoxy)methyl]uracil] | 0.013 | 280 | –
CC(C)c1c(Sc2ccccc2)n(COCCO)c(=O)[nH]c1=O [Compound 40, 1-[(2-hydroxyethoxy)methyl]-6-phenylthio-5-isopropyl-uracil] | 0.063 | 231 | –
Cc1cc(C)cc(Sc2c(C(C)C)c(=O)[nH]c(=O)n2COCCO)c1 [Compound 21, 6-(3,5-dimethylphenylthio)-1-[(2-hydroxyethoxy)methyl]-5-isopropyluracil] | – | 128 | –
CCCc1c(Sc2ccccc2)n(COCCO)c(=O)[nH]c1=O [compound 4, reference compound] | 13 | 282 | –
CCc1c(Sc2cc(C)cc(C)c2)n(COCCO)c(=O)[nH]c1=O [Compound 2, 6-(3,5-dimethylphenylthio)-5-ethyl-1-[(2-hydroxyethoxy)methyl]uracil] | – | 149 | –
Cc1cn([C@H]2C[C@H](N=[N+]=[N-])[C@@H](CO)O2)c(=O)[nH]c1=O [3'-deoxy-3'-azidothymidine] | – | – | considerable strong toxicity
